What was measured:
Type in all cases: biochemical
[1] = molecular target: T1, human 20S proteasome subunit β1 (Homo sapiens, UniProt P28072); test: cryo-EM structure at […] Å; IC50 with Z-LLE-amc
T1 construct: gene PSMB6; human constitutive 20S proteasome (h20S), whole complex; catalytic N-terminal Thr1; with other subunits of the 20S proteasome (α1–α7, β1–β7)

[2] = molecular target: T2, human 20S proteasome subunit β2 (Homo sapiens, UniProt Q99436); test: cryo-EM structure at […] Å; IC50 with Z-VLR-amc
T2 construct: gene PSMB7; human constitutive 20S proteasome (h20S), whole complex; catalytic N-terminal Thr1; with other subunits of the 20S proteasome (α1–α7, β1–β7)

[3] = tested on: T3, Trichomonas vaginalis 20S proteasome (Tv20S) subunit β5; test: IC50 for the individual proteolytic subunit (Figure S5)
T3 construct: Tv20S, whole complex; with other subunits of the Tv20S proteasome

[4] = tested on: T4, Trichomonas vaginalis 20S proteasome (Tv20S) subunit β1; test: as above
T4 construct: Tv20S, whole complex; with other subunits of the Tv20S proteasome

[5] = molecular target: T5, human 20S proteasome subunit β5 (Homo sapiens, UniProt P28074); test: cryo-EM structure at […] Å; IC50 with Suc-LLVY-amc
T5 construct: gene PSMB5; human constitutive 20S proteasome (h20S), whole complex; catalytic N-terminal Thr1; with other subunits of the 20S proteasome (α1–α7, β1–β7)
T5 sequence (Q06323 whole entry): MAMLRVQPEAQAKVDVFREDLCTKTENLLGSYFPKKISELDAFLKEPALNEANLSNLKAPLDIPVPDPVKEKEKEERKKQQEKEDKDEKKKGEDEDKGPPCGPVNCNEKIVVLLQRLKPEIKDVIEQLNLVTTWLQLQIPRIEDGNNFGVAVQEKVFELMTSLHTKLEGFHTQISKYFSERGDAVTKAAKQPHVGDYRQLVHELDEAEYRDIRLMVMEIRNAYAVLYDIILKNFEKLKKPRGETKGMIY
T5 sequence (P28074 60-263): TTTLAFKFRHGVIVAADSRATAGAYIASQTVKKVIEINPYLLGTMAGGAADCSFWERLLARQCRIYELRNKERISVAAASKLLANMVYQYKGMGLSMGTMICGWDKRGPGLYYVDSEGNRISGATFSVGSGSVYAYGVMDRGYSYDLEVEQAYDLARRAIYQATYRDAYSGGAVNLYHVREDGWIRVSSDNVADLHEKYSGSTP

T2 sequence (Q06323 whole entry): as the sequence (Q06323 whole entry) above
T2 sequence (Q99436 44-277): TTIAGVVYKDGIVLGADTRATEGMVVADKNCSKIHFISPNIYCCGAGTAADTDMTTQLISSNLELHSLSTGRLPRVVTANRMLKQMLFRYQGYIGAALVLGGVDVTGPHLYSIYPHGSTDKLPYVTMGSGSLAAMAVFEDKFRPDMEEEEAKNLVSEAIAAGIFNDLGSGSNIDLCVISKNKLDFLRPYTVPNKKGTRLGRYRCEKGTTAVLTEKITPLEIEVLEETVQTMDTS
T1 sequence (Q06323 whole entry): as the sequence (Q06323 whole entry) above
T1 sequence (P28072 35-239): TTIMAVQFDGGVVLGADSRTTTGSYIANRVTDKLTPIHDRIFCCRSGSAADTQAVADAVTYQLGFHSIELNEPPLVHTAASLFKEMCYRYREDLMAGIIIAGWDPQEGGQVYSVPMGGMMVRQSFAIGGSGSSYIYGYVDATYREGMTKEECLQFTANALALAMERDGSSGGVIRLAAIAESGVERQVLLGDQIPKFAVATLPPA

In the case of `C[C@@]12OC(=O)[C@]1([C@@H](O)[C@@H]1C=CCCC1)NC(=O)[C@@H]2CCCl` [MZB, Marizomib], the IC50 [1] is reported as 597 nM, the IC50 [2] is reported as 326 nM and the IC50 [3] is reported as 3.9 ± 0.2 nM. For the same compound, the IC50 [4] was 244 ± 72.2 nM and the IC50 [5] was 18.5 nM.
